From patent publication US20240208912A1 (Mirati Therapeutics, Inc., priority 2021, published 2024) come the findings set out here.

The subject of test [1] is HCT116 homozygous MTAP knockout cells. In words: Proliferation assay (CellTiter-Glo, 10 days) in HCT116 homozygous MTAP knockout cells. It counts as cell-based. The conditions noted are these: CellTiter-Glo after 10 days of treatment, read-out: Proliferation IC50 (nM) HCT116 MTAP_KO. The essentials: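 CellTiter-Glo viability read on day 11 gives a 10-day IC50. Dosing began one day after seeding, with a 1:10 split into fresh drug-containing medium on day 6. Cells are HCT116 lacking both MTAP alleles via CRISPR/Cas9, run alongside the parental line.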
For orientation: In ATP-based viability assays light output follows the ATP content of the culture.

The target of test [2] is T1, PRMT5/MEP50 complex (Homo sapiens, UniProt O14744).
T1 construct: purchased Reaction Biology Corporation
In words: PRMT5:MEP50 HotSpot Assay (full-length histone H2A substrate, plus and minus MTA). The format is biochemical. The conditions noted are these: IC50 + 2 μM MTA, in the presence of 2 μM MTA. The method, boiled down: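 Tritiated product on full-length recombinant H2A was counted by scintillation after the stopped reaction was captured on filter paper. Substrate is histone H2A; conditions include plus and minus MTA.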

Read-outs that look alike come from different tables or passages of the source. Where only a bound is given, the exact number is not on record here.

T1 sequence (O14744 2-637 limits assumed): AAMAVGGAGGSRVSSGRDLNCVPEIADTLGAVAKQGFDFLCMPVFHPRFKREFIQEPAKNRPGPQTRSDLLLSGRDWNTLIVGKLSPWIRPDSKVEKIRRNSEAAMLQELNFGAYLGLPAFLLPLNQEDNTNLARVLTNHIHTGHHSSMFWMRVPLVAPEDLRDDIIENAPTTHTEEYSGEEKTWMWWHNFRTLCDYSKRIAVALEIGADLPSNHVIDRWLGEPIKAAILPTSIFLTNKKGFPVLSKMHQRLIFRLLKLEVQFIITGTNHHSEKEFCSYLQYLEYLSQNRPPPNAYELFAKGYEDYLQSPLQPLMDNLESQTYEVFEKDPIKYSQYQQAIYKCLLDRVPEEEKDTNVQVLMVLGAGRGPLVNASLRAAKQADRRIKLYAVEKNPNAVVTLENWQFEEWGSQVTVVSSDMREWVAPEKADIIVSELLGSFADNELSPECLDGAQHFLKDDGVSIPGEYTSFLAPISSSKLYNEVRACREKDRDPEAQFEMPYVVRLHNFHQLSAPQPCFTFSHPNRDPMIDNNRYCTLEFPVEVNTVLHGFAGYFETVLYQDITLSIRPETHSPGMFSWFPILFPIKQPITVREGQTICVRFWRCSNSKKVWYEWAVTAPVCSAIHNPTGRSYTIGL
T1 sequence (Q9BQA1 2-342 partner limits assumed): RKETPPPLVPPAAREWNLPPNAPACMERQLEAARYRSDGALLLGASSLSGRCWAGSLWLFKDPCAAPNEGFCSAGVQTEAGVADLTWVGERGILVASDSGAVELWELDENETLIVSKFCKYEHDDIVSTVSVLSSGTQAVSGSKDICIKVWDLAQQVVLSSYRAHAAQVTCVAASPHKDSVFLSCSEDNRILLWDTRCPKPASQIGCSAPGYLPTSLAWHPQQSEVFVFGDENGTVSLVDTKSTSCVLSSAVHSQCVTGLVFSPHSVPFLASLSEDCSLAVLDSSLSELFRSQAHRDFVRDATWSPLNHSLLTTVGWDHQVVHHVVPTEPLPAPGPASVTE

On to `Cn1ncc(-c2ccc3c(=O)[nH]nc(CN)c3c2)c1-c1ccc2n1C(=O)CC2` [Example 4-260, 4-(aminomethyl)-6-[1-methyl-5-(5-oxo-6,7-dihydropyrrolizin-3-yl)pyrazol-4-yl]-2H-phthalazin-1-one], for which the IC50 is 2680 nM in test [1] (Homo sapiens, HCT-116, 240 h) and 575 nM in test [2].
Consider `Cn1ncc(-c2ccc3c(=O)[nH]nc(CN)c3c2)c1-c1sc2cc(Cl)ccc2c1C#N` [Example 4-270, 2-(4-(4-(aminomethyl)-1-oxo-1,2-dihydrophthalazin-6-yl)-1-methyl-1H-pyrazol-5-yl)-6-chlorobenzo-[b]thiophene-3-carbonitrile], for which the IC50 amounted to 400 nM in test [1] (Homo sapiens, HCT-116, 240 h) and 102 nM in test [2].
Consider `Cn1ncc(-c2cc(Cl)c3c(=O)[nH]nc(CN)c3c2)c1-c1c(F)c(Cl)cc(OC2CC2)c1C#N` (single isomer, unassigned) [Example 16-28, (M)-2-[4-[4-(aminomethyl)-8-chloro-1-oxo-2H-phthalazin-6-yl]-2-methyl-pyrazol-3-yl]-4-chloro-6-(cyclopropoxy)-3-fluoro-benzonitrile], for which the IC50 in test [1] was 10 nM; in test [2], 81 nM.
Take `Cn1ncc(-c2ccc3c(=O)[nH]nc(CN)c3c2)c1-c1c(C#N)cc2cccnc2c1Cl` (atropisomer, axis not shown; (P)) [Example 16-83, (P)-7-(4-(4-(aminomethyl)-1-oxo-1,2-dihydrophthalazin-6-yl)-1-methyl-1H-pyrazol-5-yl)-8-chloroquinoline-6-carbonitrile]: the IC50 is 1690 nM in test [1] and 446 nM in test [2].
In the case of `Cc1cc(OC2CC2)c(C#N)c(-c2c(-c3ccc4c(=O)[nH]nc(CN)c4c3)cnn2C)c1F` (single isomer, unassigned) [Example 16-20, (M)-2-[4-[4-(aminomethyl)-1-oxo-2H-phthalazin-6-yl]-2-methyl-pyrazol-3-yl]-6-(cyclopropoxy)-3-fluoro-4-methyl-benzonitrile], the IC50 in test [1] came to 13 nM; in test [2], 36 nM.
As for `Cn1ncc(-c2cc(Cl)c3c(=O)[nH]nc(CN)c3c2)c1-c1c(F)cc2ccccc2c1C#N` (single isomer, unassigned) [Example 16-12, (M)-(4-(4-(aminomethyl)-8-chloro-1-oxo-1,2-dihydrophthalazin-6-yl)-1-methyl-1H-pyrazol-5-yl)-3-fluoro-1-naphthonitrile], the IC50 is 12 nM in test [1] and 26.4 nM in test [2].
As to `Cn1ncc(-c2ccc3c(=O)[nH]nc(CN)c3c2)c1-c1c(F)cc2c(c1C#N)OCCC2` (atropisomer, axis not shown; (M)) [Example 16-38, (M)-7-[4-[4-(aminomethyl)-1-oxo-2H-phthalazin-6-yl]-2-methyl-pyrazol-3-yl]-6-fluoro-chromane-8-carbonitrile], the IC50 came to 39 nM in test [1] and 83.8 nM in test [2].
In the case of `CCOc1cc(-c2cnn(C)c2-c2c(F)c(C)c3ccccc3c2C#N)cc2c(CN)n[nH]c(=O)c12` (single isomer, unassigned) [Example 16-81, (P)-2-[4-[4-(aminomethyl)-8-ethoxy-1-oxo-2H-phthalazin-6-yl]-2-methyl-pyrazol-3-yl]-3-fluoro-4-methyl-naphthalene-1-carbonitrile], the IC50 in test [1] (Homo sapiens, HCT-116, 240 h) turned out to be 9 nM; in test [2], 42.1 nM.
`Cn1ncc(-c2ccc3c(=O)[nH]nc(CN)c3c2)c1-c1c(F)c(Cl)c2c(c1C#N)OCCC2` (single isomer, unassigned) [Example 16-39, (P)-7-(4-(4-(aminomethyl)-1-oxo-1,2-dihydrophthalazin-6-yl)-1-methyl-1H-pyrazol-5-yl)-5-chloro-6-fluorochroman-8-carbonitrile]: the IC50 in test [1] worked out at 517 nM; in test [2], 366 nM.
In the case of `Cn1ncc(-c2ccc3c(=O)[nH]nc(C4(N)CCC4)c3c2)c1-c1sc2ccccc2c1C#N` [Example 9-10, 2-(4-(4-(1-aminocyclobutyl)-1-oxo-1,2-dihydrophthalazin-6-yl)-1-methyl-1H-pyrazol-5-yl) benzo[b]thiophene-3-carbonitrile], the IC50 in test [1] (Homo sapiens, HCT-116, 240 h) is 10000 nM; in test [2] it was > 10000 nM.
For `Cn1ncc(-c2ccc3c(=O)[nH]nc(CN)c3c2)c1-c1sc2ccncc2c1C#N` [Example 4-274, 2-[4-[4-(aminomethyl)-1-oxo-2H-phthalazin-6-yl]-2-methyl-pyrazol-3-yl]thieno[3,2-c]pyridine-3-carbonitrile] the same measures were 3380 nM and 1070 nM.
In the case of `CCOc1cc(-c2cnn(C)c2-c2c(F)c(C)c3ccccc3c2C#N)cc2c(CN)n[nH]c(=O)c12` (single isomer, unassigned) [Example 16-82, (M)-2-[4-[4-(aminomethyl)-8-ethoxy-1-oxo-2H-phthalazin-6-yl]-2-methyl-pyrazol-3-yl]-3-fluoro-4-methyl-naphthalene-1-carbonitrile], the IC50 is 14 nM in test [1] and 1180 nM in test [2].
`Cn1ncc(-c2ccc3c(=O)[nH]nc(CN)c3c2)c1-c1sc2c(OCC(F)F)cccc2c1C#N` [Example 4-269, 2-(4-(4-(aminomethyl)-1-oxo-1,2-dihydrophthalazin-6-yl)-1-methyl-1H-pyrazol-5-yl)-7-(2,2-difluoroethoxy)benzo[b]thiophene-3-carbonitrile]: the IC50 in test [1] (Homo sapiens, HCT-116, 240 h) is 182 nM; in test [2], 58.2 nM.
In the same order, the values of `CCOc1cc(-c2cnn(C)c2-c2c(F)c(C)c3cc(Cl)cnc3c2C#N)cc2c(CN)n[nH]c(=O)c12` (single isomer, unassigned) [Example 16-99, (P)-7-(4-(4-(aminomethyl)-8-ethoxy-1-oxo-1,2-dihydrophthalazin-6-yl)-1-methyl-1H-pyrazol-5-yl)-3-chloro-6-fluoro-5-methylquinoline-8-carbonitrile] are 10000 nM and 9870 nM.
As for `Cn1ncc(-c2ccc3c(=O)[nH]nc(CN)c3c2)c1-c1c(C#N)c(OC2CC2)c2ccccc2c1Cl` (single isomer, unassigned) [Example 16-24, (M)-3-[4-[4-(aminomethyl)-1-oxo-2H-phthalazin-6-yl]-2-methyl-pyrazol-3-yl]-4-chloro-1-(cyclopropoxy)naphthalene-2-carbonitrile], the IC50 in test [1] was determined as 61 nM; in test [2], 37.2 nM.
As for `N#Cc1c(-c2c(-c3ccc4c(=O)[nH]nc(CN)c4c3)cnn2C(F)F)sc2ccccc12` [Example 19-3, 2-(4-(4-(aminomethyl)-1-oxo-1,2-dihydrophthalazin-6-yl)-1-(difluoromethyl)-1H-pyrazol-5-yl)benzo[b]thiophene-3-carbonitrile], the IC50 in test [1] (Homo sapiens, HCT-116, 240 h) turned out to be 149 nM; in test [2] it was 308 nM.
As for `Cc1c(F)c(-c2c(-c3cc(Cl)c4c(=O)[nH]nc(CN)c4c3)cnn2C)c(C#N)c2ccccc12` (single isomer, unassigned) [Example 16-60, (M)-2-[4-[4-(aminomethyl)-8-chloro-1-oxo-2H-phthalazin-6-yl]-2-methyl-pyrazol-3-yl]-3-fluoro-4-methyl-naphthalene-1-carbonitrile], the IC50 in test [1] stood at 39 nM; in test [2], 14.7 nM.
Consider `Cn1ncc(-c2cc(Cl)c3c(=O)[nH]nc(CN)c3c2)c1-c1c(F)cc2ncc(Cl)cc2c1C#N` (single isomer, unassigned) [Example 16-61, (P)-6-[4-[4-(aminomethyl)-8-chloro-1-oxo-2H-phthalazin-6-yl]-2-methyl-pyrazol-3-yl]-3-chloro-7-fluoro-quinoline-5-carbonitrile], for which the IC50 in test [1] stood at 80 nM; in test [2] it was 217 nM.
`Cn1ncc(-c2ccc3c(=O)[nH]nc(CN)c3c2)c1-c1c(C#N)ccc2c1COC2` (single isomer, unassigned) [Example 16-69, (M)-4-[4-[4-(aminomethyl)-1-oxo-2H-phthalazin-6-yl]-2-methyl-pyrazol-3-yl]-1,3-dihydroisobenzofuran-5-carbonitrile]: the IC50 turned out to be 10200 nM in test [1] and 6540 nM in test [2].
On to `Cn1ncc(-c2ccc3c(=O)[nH]nc(CN)c3c2)c1-c1c(F)cc2c(c1C#N)OCCO2` (single isomer, unassigned) [Example 16-90, (M)-6-[4-[4-(aminomethyl)-1-oxo-2H-phthalazin-6-yl]-2-methyl-pyrazol-3-yl]-7-fluoro-2,3-dihydro-1,4-benzodioxine-5-carbonitrile], for which the IC50 turned out to be 138 nM in test [1] and 248 nM in test [2].
In the case of `Cn1ncc(-c2ccc3c(=O)[nH]nc(CN)c3c2)c1-c1c(C#N)ccc2c1COC2` (single isomer, unassigned) [Example 16-70, (P)-4-[4-[4-(aminomethyl)-1-oxo-2H-phthalazin-6-yl]-2-methyl-pyrazol-3-yl]-1,3-dihydroisobenzofuran-5-carbonitrile], the IC50 was 462 nM in test [1] and 542 nM in test [2].
Regarding `Cn1ncc(-c2ccc3c(=O)[nH]nc(CN)c3c2)c1-c1c(C#N)cc2ccccc2c1F` (single isomer, unassigned) [Example 16-53, (P)-3-[4-[4-(aminomethyl)-1-oxo-2H-phthalazin-6-yl]-2-methyl-pyrazol-3-yl]-4-fluoro-naphthalene-2-carbonitrile], the IC50 stood at 752 nM in test [1] and 157 nM in test [2].
As for `Cn1ncc(-c2ccc3c(=O)[nH]nc(C4CCN4)c3c2)c1-c1sc2ccccc2c1C#N` (stereo not shown) [Example 9-11, 2-(4-(4-(azetidin-2-yl)-1-oxo-1,2-dihydrophthalazin-6-yl)-1-methyl-1H-pyrazol-5-yl)benzo[b]thiophene-3-carbonitrile], the IC50 stood at 2370 nM in test [1] (Homo sapiens, HCT-116, 240 h) and 1440 nM in test [2].
